According to article PMC10458471, “Electrophysiological Assessment of Newly Synthesized 2,3-Benzodiazepine Derivatives for Inhibiting the AMPA Receptor Channel” (Molecules, 2023):
pIC50: −log10 of the molar value. Read-outs that look alike come from different tables or passages of the source.

Experiments:
Type in all cases: cell-based
[1] = molecular target: T1, GluA1 (Rattus norvegicus, UniProt P19490); experiment: Whole-cell patch-clamp recording of homomeric GluA1 AMPAR expressed in HEK293T cells; conditions: for Amplitude with compound: 10 mM glutamate + 16 µM compound, mean±SEM; for Amplitude with compound / pIC50: -60 mV, pH 7.4, 22 °C; for Amplitude with compound / A/AI (current amplitude ratio without/with compound) / t deact (weighted deactivation time constant) / t des (weighted desensitization time constant) / Amplitude, applying glutamate alone after compound: n=8; for A/AI (current amplitude ratio without/with compound): 10 mM glutamate, 16 µM compound; for t deact (weighted deactivation time constant): 1 ms 10 mM glutamate + 16 µM compound; for t des (weighted desensitization time constant): 500 ms 10 mM glutamate + 16 µM compound; for IC50: log of IC50, read-out: Log IC50 (converted); for pIC50: normalized peak current, read-out: IC50; for Amplitude, applying glutamate alone after compound: washout/recovery
T1 construct: expressed in transfected cells; host or cells: HEK293T
T1 sequence (P19490 19-907 isoform P19490-2 limits assumed): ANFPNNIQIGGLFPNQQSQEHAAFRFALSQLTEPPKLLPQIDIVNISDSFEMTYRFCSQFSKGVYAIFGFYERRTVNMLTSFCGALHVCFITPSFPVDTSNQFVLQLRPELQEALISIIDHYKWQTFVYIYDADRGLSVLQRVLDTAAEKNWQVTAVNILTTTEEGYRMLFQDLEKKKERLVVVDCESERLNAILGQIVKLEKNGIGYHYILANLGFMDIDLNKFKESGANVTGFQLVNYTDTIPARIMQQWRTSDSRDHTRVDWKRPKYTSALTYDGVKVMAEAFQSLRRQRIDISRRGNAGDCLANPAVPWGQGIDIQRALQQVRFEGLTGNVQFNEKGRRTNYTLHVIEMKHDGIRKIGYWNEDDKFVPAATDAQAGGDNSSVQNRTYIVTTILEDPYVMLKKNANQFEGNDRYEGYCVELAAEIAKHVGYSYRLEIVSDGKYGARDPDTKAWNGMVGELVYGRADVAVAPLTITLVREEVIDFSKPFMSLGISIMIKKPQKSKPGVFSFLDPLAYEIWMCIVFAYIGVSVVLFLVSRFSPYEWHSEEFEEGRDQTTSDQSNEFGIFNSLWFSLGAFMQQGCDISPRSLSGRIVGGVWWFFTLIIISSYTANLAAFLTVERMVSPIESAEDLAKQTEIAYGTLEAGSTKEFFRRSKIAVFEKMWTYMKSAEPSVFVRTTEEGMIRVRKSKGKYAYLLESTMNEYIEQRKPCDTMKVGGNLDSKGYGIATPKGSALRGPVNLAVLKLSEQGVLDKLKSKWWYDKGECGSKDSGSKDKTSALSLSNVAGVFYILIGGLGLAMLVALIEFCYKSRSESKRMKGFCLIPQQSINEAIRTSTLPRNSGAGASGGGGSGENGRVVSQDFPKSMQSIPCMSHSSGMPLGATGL
Procedure: (§1) For the DNA preparation, the QIAGEN Plasmid Mini Kit was used to prepare up to 20 µg of high-copy plasmid DNA [30]. All AMPAR subunits utilized in this study included the flip isoform received from S. F. Heinemann (Salk Institute, La Jolla, CA, USA) and sub-cloned in pRK for expression in Human Embryonic Kidney Cells 293 (HEK293T). The human embryonic kidney (HEK293T) cells were obtained from Sigma, Taufkirchen, Germany, and we only used the HEK293T cell line due to their ease of growth and transfection and wide utilization in cell culture. For the transfection, we used the constructs GluA1, GluA2, GluA2/3, and GluA1/2, along with the GFP-expressing construct, as described in our previous work. The transfection reagents utilized were jetPRIME (Polyplus: New York, NY, USA) or Lipofectamine 2000 (Invitrogen; San Diego, CA, USA). The highly fluorescent cells were identified and selected for recording. The selected cells were seeded in Dulbecco Modified Eagle Medium (DMEM) (Sigma, Roedermark, Germany) containing 10% FBS, 0.1 mg/mL streptomycin, and 1 mM sodium pyruvate (Biological Industries; Beit-Haemek, Israel). The cells were incubated at 37 °C with 5% CO2 added to the medium and subcultured twice a week until they reached passage #20. Following a day and a half, the cells were replated on coverslips covered with Laminin (1 mg/mL; Sigma, Roedermark, Germany) for electrophysiological recordings. Our previous work has detailed the DNA preparation, cDNA transient transfection, and cell culture of HEK293T [30, 31, 32, 33].
(§2) After that, a patch was placed in front of a rapid perfusion system comprised of a theta tube flow pipe mounted on a piezoelectric translator that was used to wash the cell continuously from one barrel while the other supplied the compound of interest to the cell. Recordings were conducted 36–48 h after transfection at 22 °C, with a membrane potential of −60 mV. Currents were amplified using an integrated patch amplifier (IPA, Sutter Instruments, Novato, CA, USA), filtered at 2 kHz, and digitized at 10 kHz using SutterPatch Software v. 1.1.1 [46]. […] The extracellular medium contained (in mM): 150 NaCl, 2.8 KCl, 0.5 MgCl2, 2 CaCl2, and 10 HEPES, pH 7.4 adjusted with NaOH. The holding potential was typically −60 mV. The sample size was determined to be eight viable cells to calculate the mean inhibition of the derivative of interest. The solution exchange time (10–90% to peak) was estimated at […] using open-tip control at the end of a recording. Inhibition was calculated by comparing the current observed when the cell was supplied with glutamate alone and when the same cell was supplied with both glutamate and the 2,3-BDZ compounds. The initial tube containing only glutamate was reintroduced to the cell to ensure cellular safety and authenticate the antagonist’s findings. This step ensured that the glutamate-induced current observed before the administration of the antagonist was nearly indistinguishable from the current observed after administration.
(§3) The experiment served two purposes: first, determining the whole-cell current amplitude ratio in the absence and presence of the compounds (A/AI) to derive a constant inhibitory value independent of the rate measurement. Second, as an independent control method, a fast exchange solution flow methodology was employed using piezoelectric actuators, providing the fastest exchange solution with open-tip current rise times in the 100–300 μs range to assess the amplitude of the whole-cell current. Detailed data analysis of this process is provided in the supporting information (Tables S1–S4).
(§4) The data acquired were analyzed using Igor Pro7 (Wave Metrics, Inc., Portland, OR, USA). Receptor desensitization (τw des) and deactivation rates were estimated by fitting the current decay starting from 95% of the peak to the baseline current using a double exponential formulation. […]

[2] = molecular target: T2, GluA1/2 (Rattus norvegicus, UniProt P19490+P19491); experiment: Whole-cell patch-clamp recording of heteromeric GluA1/2 AMPAR expressed in HEK293T cells; conditions: for Amplitude with compound: 10 mM glutamate + 16 µM compound, mean±SEM; for Amplitude with compound / pIC50: -60 mV, pH 7.4, 22 °C; for Amplitude with compound / A/AI (current amplitude ratio without/with compound) / t deact (weighted deactivation time constant) / t des (weighted desensitization time constant) / Amplitude, applying glutamate alone after compound: n=8; for A/AI (current amplitude ratio without/with compound): 10 mM glutamate, 16 µM compound; for t deact (weighted deactivation time constant): 1 ms 10 mM glutamate + 16 µM compound; for t des (weighted desensitization time constant): 500 ms 10 mM glutamate + 16 µM compound; for IC50: log of IC50, read-out: Log IC50 (converted); for pIC50: normalized peak current, read-out: IC50; for Amplitude, applying glutamate alone after compound: washout/recovery
T2 construct: expressed in transfected cells; host or cells: HEK293T
T2 sequence (P19490 19-907 isoform P19490-2 limits assumed): as above
T2 sequence (P19491 22-883 isoform P19491-2 limits assumed): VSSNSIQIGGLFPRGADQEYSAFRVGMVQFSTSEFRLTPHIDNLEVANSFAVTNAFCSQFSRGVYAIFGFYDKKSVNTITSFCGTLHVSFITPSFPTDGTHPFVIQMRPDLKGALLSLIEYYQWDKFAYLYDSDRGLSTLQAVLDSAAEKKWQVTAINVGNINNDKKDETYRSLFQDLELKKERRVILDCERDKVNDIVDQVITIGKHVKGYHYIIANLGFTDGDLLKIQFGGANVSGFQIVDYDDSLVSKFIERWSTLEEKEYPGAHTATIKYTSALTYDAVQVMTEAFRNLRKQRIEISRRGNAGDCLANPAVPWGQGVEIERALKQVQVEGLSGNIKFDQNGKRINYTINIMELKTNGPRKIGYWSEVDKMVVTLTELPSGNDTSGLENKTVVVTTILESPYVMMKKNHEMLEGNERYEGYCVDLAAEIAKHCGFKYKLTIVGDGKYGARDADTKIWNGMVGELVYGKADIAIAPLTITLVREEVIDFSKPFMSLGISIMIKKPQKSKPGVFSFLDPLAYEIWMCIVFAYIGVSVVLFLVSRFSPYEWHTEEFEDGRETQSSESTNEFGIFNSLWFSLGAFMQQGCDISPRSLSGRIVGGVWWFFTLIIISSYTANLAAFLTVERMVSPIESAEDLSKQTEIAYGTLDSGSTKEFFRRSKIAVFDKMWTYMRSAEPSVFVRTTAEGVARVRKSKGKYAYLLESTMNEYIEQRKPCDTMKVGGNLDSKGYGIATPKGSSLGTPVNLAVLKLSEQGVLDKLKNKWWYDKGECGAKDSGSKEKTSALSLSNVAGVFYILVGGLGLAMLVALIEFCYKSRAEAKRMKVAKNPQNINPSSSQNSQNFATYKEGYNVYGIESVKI
Procedure: as §1, §2, §3, §4

[3] = molecular target: T3, GluA2 (Rattus norvegicus, UniProt P19491); experiment: Whole-cell patch-clamp recording of homomeric GluA2 AMPAR expressed in HEK293T cells; conditions: for Amplitude with compound: 10 mM glutamate + 16 µM compound, mean±SEM; for Amplitude with compound / pIC50: -60 mV, pH 7.4, 22 °C; for Amplitude with compound / A/AI (current amplitude ratio without/with compound) / t deact (weighted deactivation time constant) / t des (weighted desensitization time constant) / Amplitude, applying glutamate alone after compound: n=8; for A/AI (current amplitude ratio without/with compound): 10 mM glutamate, 16 µM compound; for t deact (weighted deactivation time constant): 1 ms 10 mM glutamate + 16 µM compound; for t des (weighted desensitization time constant): 500 ms 10 mM glutamate + 16 µM compound; for IC50: log of IC50, read-out: Log IC50 (converted); for pIC50: normalized peak current, read-out: IC50; for Amplitude, applying glutamate alone after compound: washout/recovery
T3 construct: expressed in transfected cells; host or cells: HEK293T
T3 sequence (P19491 22-883 isoform P19491-2 limits assumed): as above
Procedure: as §1, §2, §3, §4

[4] = molecular target: T4, GluA2/3 (Rattus norvegicus, UniProt P19491+P19492); experiment: Whole-cell patch-clamp recording of heteromeric GluA2/3 AMPAR expressed in HEK293T cells; conditions: for Amplitude with compound: 10 mM glutamate + 16 µM compound, mean±SEM; for Amplitude with compound / pIC50: -60 mV, pH 7.4, 22 °C; for Amplitude with compound / A/AI (current amplitude ratio without/with compound) / t deact (weighted deactivation time constant) / t des (weighted desensitization time constant) / Amplitude, applying glutamate alone after compound: n=8; for A/AI (current amplitude ratio without/with compound): 10 mM glutamate, 16 µM compound; for t deact (weighted deactivation time constant): 1 ms 10 mM glutamate + 16 µM compound; for t des (weighted desensitization time constant): 500 ms 10 mM glutamate + 16 µM compound; for IC50: log of IC50, read-out: Log IC50 (converted); for pIC50: normalized peak current, read-out: IC50; for Amplitude, applying glutamate alone after compound: washout/recovery
T4 construct: expressed in transfected cells; host or cells: HEK293T
T4 sequence (P19491 22-883 isoform P19491-2 limits assumed): as above
T4 sequence (P19492 23-888 isoform P19492-2 limits assumed): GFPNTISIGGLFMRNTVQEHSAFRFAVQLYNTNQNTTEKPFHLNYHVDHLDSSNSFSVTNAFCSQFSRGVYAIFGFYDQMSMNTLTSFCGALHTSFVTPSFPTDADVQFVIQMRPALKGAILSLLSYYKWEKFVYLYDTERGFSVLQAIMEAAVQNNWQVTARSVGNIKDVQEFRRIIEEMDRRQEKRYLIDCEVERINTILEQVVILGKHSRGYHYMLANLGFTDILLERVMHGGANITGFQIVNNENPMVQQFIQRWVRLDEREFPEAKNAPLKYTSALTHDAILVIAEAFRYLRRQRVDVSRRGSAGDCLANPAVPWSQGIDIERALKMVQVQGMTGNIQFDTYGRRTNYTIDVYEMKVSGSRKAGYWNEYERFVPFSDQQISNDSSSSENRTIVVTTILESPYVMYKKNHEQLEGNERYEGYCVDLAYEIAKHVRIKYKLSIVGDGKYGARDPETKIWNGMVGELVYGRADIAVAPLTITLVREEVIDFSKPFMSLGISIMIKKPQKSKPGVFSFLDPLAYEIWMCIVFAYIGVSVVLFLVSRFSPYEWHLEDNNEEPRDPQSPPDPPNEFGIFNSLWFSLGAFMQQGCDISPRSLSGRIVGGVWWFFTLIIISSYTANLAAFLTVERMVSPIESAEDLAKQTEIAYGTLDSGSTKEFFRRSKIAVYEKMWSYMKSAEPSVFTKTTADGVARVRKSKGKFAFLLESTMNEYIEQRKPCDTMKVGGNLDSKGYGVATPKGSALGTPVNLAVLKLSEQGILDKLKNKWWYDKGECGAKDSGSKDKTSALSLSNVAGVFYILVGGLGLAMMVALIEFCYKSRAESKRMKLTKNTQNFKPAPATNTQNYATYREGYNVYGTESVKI
Procedure: as §1, §2, §3, §4

[5] = test system: AMPA receptor subunits; experiment: Whole-cell patch-clamp recording, statements over all tested AMPAR subunits (GluA1, GluA1/2, GluA2, GluA2/3) in HEK293T cells; conditions: 16 µM compound; for Effect on deactivation rate of the AMPAR subunits examined: 1 ms glutamate
Procedure: as §1, §2, §3, §4

| Amplitude with compound [1] | A/AI (current amplitude ratio without/with compound) [1] | t deact (weighted deactivation time constant) [1] | IC50 [1] | pIC50 [1] | Amplitude, applying glutamate alone after compound [1] | Amplitude with compound [2] | A/AI (current amplitude ratio without/with compound) [2] | t deact (weighted deactivation time constant) [2] | IC50 [2] | pIC50 [2] | Amplitude, applying glutamate alone after compound [2] | Amplitude with compound [3] | A/AI (current amplitude ratio without/with compound) [3] | t deact (weighted deactivation time constant) [3] | IC50 [3] | pIC50 [3] | Compound | t des (weighted desensitization time constant) [1] | t des (weighted desensitization time constant) [2] | t des (weighted desensitization time constant) [3] | other results |
| --- | --- | --- | --- | --- | --- | --- | --- | --- | --- | --- | --- | --- | --- | --- | --- | --- | --- | --- | --- | --- | --- |
| 93±10.0 pA | 9.82±0.7 | 3.6 ± 0.3 ms | 3.47 µM | 5.45 | 914±40 pA | 53±3.0 pA | 9.91±0.6 | 3.9 ± 0.4 ms | 3.39 µM | 5.46 | 523±33 pA | 127±12.0 pA | 10.42±0.8 | 5.1 ± 0.4 ms | 3.39 µM | 5.47 | COc1cc(N)ccc1C1=NNC(=O)Cc2cc3c(cc21)OCO3 [2,3-BDZ-2, 1-(2-Methoxy-4-aminophenyl)-7,8-(methylenedioxy)-3,5-dihydro-4H-2,3-benzodiazepin-4-one] | 1.8 ± 0.1 ms | 3.8 ± 0.3 ms | 1.6 ± 0.05 ms | Amplitude, applying glutamate alone after compound [3]: 1310±42 pA; Amplitude with compound [4]: 52±7.0 pA; A/AI (current amplitude ratio without/with compound) [4]: 10.28±0.6; t deact (weighted deactivation time constant) [4]: 4.8 ± 0.5 ms; t des (weighted desensitization time constant) [4]: 1.7 ± 0.08 ms; IC50 [4]: 3.47 µM; pIC50 [4]: 5.46; Amplitude, applying glutamate alone after compound [4]: 532±26 pA; Reduction in AMPAR subunit currents [5]: approximately 10 fold; Effect on deactivation rate of the AMPAR subunits examined [5]: nearly doubles; Reduction in the desensitization rate of the investigated subunits ([5]; 500 ms glutamate): 1–2 fold |
| 277±14 pA | 3.41±0.2 | 2.3 ± 0.1 ms | 6.76 µM | 5.17 | 942±44 pA | 170±9 pA | 3.44±0.2 | 2.7 ± 0.2 ms | 6.76 µM | 5.17 | 583±40 pA | 364±17 pA | 3.68±0.1 | 2.7 ± 0.1 ms | 6.76 µM | 5.17 | COc1cc([N+](=O)[O-])ccc1C1=NNC(=O)Cc2cc3c(cc21)OCO3 [2,3-BDZ-4, 1-(2-Methoxy-4-nitrophenyl)-7,8-(methylenedioxy)-3,5-dihydro-4H-2,3-benzodiazepin-4-one] | 2.2 ± 0.1 ms | 5.0 ± 0.3 ms | 2.5 ± 0.1 ms | Amplitude, applying glutamate alone after compound [3]: 1340±52 pA; Amplitude with compound [4]: 146±14 pA; A/AI (current amplitude ratio without/with compound) [4]: 3.56±0.3; t deact (weighted deactivation time constant) [4]: 2.8 ± 0.2 ms; t des (weighted desensitization time constant) [4]: 2.6 ± 0.2 ms; IC50 [4]: 6.76 µM; pIC50 [4]: 5.17; Amplitude, applying glutamate alone after compound [4]: 516±23 pA; Effect on desensitization rate [5]: no change; Reduction in AMPAR subunit currents [5]: 3 fold; Effect on deactivation rate of the AMPAR subunits examined [5]: no change |
